Experiment [1] addresses indoleamine 2,3-dioxygenase (IDO) (Homo sapiens, UniProt P14902). Description: HeLa cell-based indoleamine 2,3-dioxygenase (IDO) assay (kynurenine production, IFNγ-stimulated). The conditions noted are these: HeLa cells.
Experiment [2] addresses T1, human IDO1 (Homo sapiens, UniProt P14902).
T1 construct: expressed in transfected cells
As to the kind of experiment: HEK293 cell-based indoleamine 2,3-dioxygenase (IDO) assay. The conditions noted are these: human IDO1/HEK293 cells. The protocol: Assessment of inhibitor activity in HEK293 cell-based indoleamine 2,3-dioxygenase (IDO) assay.
HEK293 cells were transfected with a pCDNA-based mammalian expression vector harboring human IDO1 cDNA (NM 002164.2) by electroporation. They were cultured in medium (DMEM with 10% FBS) containing 1 mg/ml G418 for two weeks. Clones of HEK293 cells that stably expressed human IDO1 protein were selected and expanded for IDO inhibition assay.
The human IDO1/HEK293 cells were seeded at 10,000 cells per 50 μL per well with RPMI/phenol red free media contains 10% FBS in a 384-well black wall clear bottom tissue culture plate (Matrix Technologies LLC) 100 nL of certain concentration of compound was then added to each well using ECHO liquid handling systems. The cells were incubated for 20 hours in 37° C. incubator with 5% CO2.
The compound treatments were stopped by adding trichloroacetic acid (Sigma-Aldrich) to a final concentration at 0.2%. The cell plate was further incubated at 50° C. for 30 minute. The equal volume supernatant (20 μL) and 0.2% (w/v) Ehrlich reagent (4-dimethylaminobenzaldehyde, Sigma-Aldrich) in glacial acetic acid were mixed in a new clear bottom 384-well plate. This plate was then incubated at room temperature for 30 minute. The absorbance at 490 nm was measured on Envision plate reader.
Compound IC50 values were calculated using the counts of 500 nM of a reference standard treatment as one hundred percent inhibition, and counts of no compound but DMSO treatment as zero percent inhibition.
Activity for compounds described herein is provided in Table 1, wherein potency levels are provided as follows: (Potency: IDO IC50: A<0.01 μM; B<0.1 μM; C<10 μM)

Where [3] appears, read: potency class, read-out: Patent Potency Hela IC50 A < 10 nM, B > 10 nM, C > 100 nM.
Where [4] appears, read: IFNγ 25 ng/mL, 48 hour incubation, read-out: IDO Hela IC50.
The mark [5] stands for this setting: 20 hours incubation, read-out: IDO1 HEK Human IC50.

The structures appear in SMILES notation. Read-outs that look alike come from different tables or passages of the source.

Chain of indoleamine 2,3-dioxygenase (IDO) (P14902 whole entry): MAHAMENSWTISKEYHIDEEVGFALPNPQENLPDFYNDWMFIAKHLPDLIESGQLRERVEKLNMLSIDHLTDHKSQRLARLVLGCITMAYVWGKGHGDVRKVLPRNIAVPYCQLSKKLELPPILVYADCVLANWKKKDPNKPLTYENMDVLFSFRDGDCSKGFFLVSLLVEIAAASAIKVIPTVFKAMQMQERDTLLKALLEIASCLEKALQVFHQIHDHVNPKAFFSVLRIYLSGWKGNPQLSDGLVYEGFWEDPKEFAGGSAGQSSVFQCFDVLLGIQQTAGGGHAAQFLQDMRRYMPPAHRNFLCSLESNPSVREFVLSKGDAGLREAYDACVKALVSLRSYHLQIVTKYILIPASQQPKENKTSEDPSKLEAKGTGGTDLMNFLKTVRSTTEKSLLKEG
T1 sequence (P14902 whole entry): as above

`CC[C@@H](NC(=O)c1ccc(OC)nc1)[C@H]1CC[C@@H](c2ccnc3ccc(F)cc32)CC1` (single isomer, unassigned) [Example 10b, N-(1-(4-(6-Fluoroquinolin-4-yl)cyclohexyl)propyl)-6-methoxynicotinamide]: the IC50 (commonly the concentration at which inhibition is half-maximal) in experiment [1] (setting [3]) was below 0.01 µM; in experiment [2] (potency class, read-out: Patent Potency HEK IC50 A < 10 nM, B > 10 nM, C > 100 nM), below 0.01 µM. Consider `C[C@@H](NC(=O)c1ccc(-n2cccn2)nc1)[C@H]1CC[C@@H](c2ccnc3ccc(F)cc32)CC1` [Example 4, N-((R)-1-((1s,4S)-4-(6-Fluoroquinolin-4-yl)cyclohexyl)ethyl)-6-(1H-pyrazol-1-yl)nicotinamide], for which the IC50 came to 0.01 µM in experiment [1] (setting [4]) and 0.011 µM in experiment [2] (setting [5]). With `COCCOc1ccc(-c2ccc(C(=O)N[C@H](C)[C@H]3CC[C@@H](c4ccnc5ccc(F)cc54)CC3)cn2)cc1` [Example 6], the IC50 in experiment [2] (setting [5]) worked out at 0.488 µM. Regarding `CC[C@@H](NC(=O)c1ccc(OC)nc1)[C@H]1CC[C@@H](c2ccnc3ccc(F)cc32)CC1` (single isomer, unassigned) [Example 10d, N-(1-(4-(6-Fluoroquinolin-4-yl)cyclohexyl)propyl)-6-methoxynicotinamide], in experiment [2] (setting [5]), the IC50 was found to be 0.037 µM. Turning to `CC[C@@H](NC(=O)c1ccc(OC)nc1)[C@H]1CC[C@@H](c2ccnc3ccc(F)cc32)CC1` (single isomer, unassigned) [Example 10a, N-(1-(4-(6-Fluoroquinolin-4-yl)cyclohexyl)propyl)-6-methoxynicotinamide], in experiment [2] (setting [5]), the IC50 was determined as 0.224 µM. Regarding `C[C@@H](NC(=O)c1ccc(Cl)nc1)[C@H]1CC[C@@H](c2ccnc3ccc(F)cc32)CC1` [Example 5, 6-Chloro-N-((R)-1-((1s,4S)-4-(6-fluoroquinolin-4-yl)cyclohexyl)ethyl)nicotinamide], the IC50 is below 0.01 µM in experiment [1] (setting [3]) and 0.01 µM in experiment [2] (setting [5]). For `COc1ncc(C(=O)N[C@H](C)[C@H]2CC[C@@H](c3ccnc4ccc(F)cc43)CC2)cn1` [Example 8, N-((R)-1-((1s,4S)-4-(6-Fluoroquinolin-4-yl)cyclohexyl)ethyl)-2-methoxypyrimidine-5-carboxamide], the IC50 in experiment [1] (setting [4]) came out at 0.01 µM; in experiment [2] (setting [5]), 0.005 µM. For the molecule `Cc1ncc(C(=O)N[C@H](C)[C@H]2CC[C@@H](c3ccnc4ccc(F)cc43)CC2)cn1` [Example 9, N-((R)-1-((1s,4S)-4-(6-Fluoroquinolin-4-yl)cyclohexyl)ethyl)-2-methylpyrimidine-5-carboxamide], the IC50 in experiment [2] (setting [5]) came out at 0.028 µM.

Turning to `C[C@@H](NC(=O)c1cccnc1)[C@H]1CC[C@@H](c2ccnc3ccc(F)cc32)CC1` [Example 33, N—((R)-1-((cis)-4-(6-fluoroquinolin-4-yl)cyclohexyl)ethyl)nicotinamide], the IC50 in experiment [1] (setting [4]) and in experiment [2] (setting [5]) was 0.01 µM in each case. In the case of `COc1ccc(-c2ccc(C(=O)N[C@H](C)[C@H]3CC[C@@H](c4ccnc5ccc(F)cc54)CC3)cn2)cn1` [Example 1, N—((R)-1-((1s,4s)-4-(6-Fluoroquinolin-4-yl)cyclohexyl)ethyl)-6′-methoxy-2,3′-bipyridine-5-carboxamide], the half-inhibitory concentration (IC50) in experiment [1] (setting [4]) was found to be 0.03 µM; in experiment [2] (setting [5]) it was 0.056 µM. Take `CC[C@@H](NC(=O)c1ccc(OC)nc1)[C@H]1CC[C@@H](c2ccnc3ccc(F)cc32)CC1` (single isomer, unassigned) [Example 10c, N-(1-(4-(6-Fluoroquinolin-4-yl)cyclohexyl)propyl)-6-methoxynicotinamide]: the IC50 in experiment [2] (setting [5]) worked out at 0.055 µM. As for `C[C@@H](NC(=O)c1cncnc1)[C@H]1CC[C@@H](c2ccnc3ccc(F)cc32)CC1` [Example 36, N-((R)-1-((cis)-4-(6-fluoroquinolin-4-yl)cyclohexyl)ethyl)pyrimidine-5-carboxamide], the half-inhibitory concentration (IC50) in experiment [1] (setting [4]) worked out at 0.03 µM; in experiment [2] (setting [5]), 0.039 µM.

Turning to `C[C@@H](NC(=O)c1ccc(F)nc1)[C@H]1CC[C@@H](c2ccnc3ccc(F)cc32)CC1` [Example 7, 6-Fluoro-N-((R)-1-((1s,4S)-4-(6-fluoroquinolin-4-yl)cyclohexyl)ethyl)nicotinamide], the values for the IC50 in experiment [1] (setting [4]) and in experiment [2] (setting [5]) were 0.01 µM and 0.005 µM, respectively. Taken in the same sequence, the figures for `C[C@@H](NC(=O)c1ccncc1)[C@H]1CC[C@@H](c2ccnc3ccc(F)cc32)CC1` [Example 34, N-((R)-1-((cis)-4-(6-fluoroquinolin-4-yl)cyclohexyl)ethyl)isonicotinamide] were 0.01 µM and 0.013 µM. `C[C@@H](NC(=O)c1ccc(O)nc1)[C@H]1CC[C@@H](c2ccnc3ccc(F)cc32)CC1` [Example 3, N-((R)-1-((1s,4S)-4-(6-Fluoroquinolin-4-yl)cyclohexyl)ethyl)-6-hydroxynicotinamide]: the IC50 in experiment [2] (setting [5]) was 0.252 µM. On to `COc1ccc(C(=O)N[C@H](C)[C@H]2CC[C@@H](c3ccnc4ccc(F)cc43)CC2)cn1` [Example 2, N-((R)-1-((1s,4S)-4-(6-Fluoroquinolin-4-yl)cyclohexyl)ethyl)-6-methoxynicotinamide], for which the IC50 is below 0.01 µM in experiment [1] (setting [3]) and 0.001 µM in experiment [2] (setting [5]). On to `C[C@@H](NC(=O)c1cnccn1)[C@H]1CC[C@@H](c2ccnc3ccc(F)cc32)CC1` [Example 35, N-((R)-1-((cis)-4-(6-fluoroquinolin-4-yl)cyclohexyl)ethyl)pyrazine-2-carboxamide], for which the IC50 stood at 0.01 µM in experiment [1] (setting [4]) and 0.022 µM in experiment [2] (setting [5]).

These data come from patent US11066392B2, “Inhibitors of indoleamine 2,3-dioxygenase and methods of their use” (BRISTOL-MYERS SQUIBB COMPANY, priority 2017, dated 2021).
